Measured values as given in patent US20230226070A1, “TREATMENT OF THROMBOSIS AND ASSOCIATED DISORDERS WITH AN ANTI-PLATELET AGENT” (THE HEART RESEARCH INSTITUTE LTD, priority 2020, published 2023).
Entries after “also recorded” stand apart in the source; their conditions may differ. Where a SMILES comes first, the peptide text is derived from it. Bridges are numbered along the chain shown (N, C = ends). [ ]: non-standard residue; d: D form. hArg = N=C(N)NCCCC[C@H](N)C(=O)O; Mpa = O=C(O)CCS

Tests used:
tail bleeding = assay: 3 mm tail lop (tail transection) bleeding assay
Description: Bleeding was assessed using a 3 mm tail lop assay. Drug treatments (bolus) were administered 10 min before the start of tail bleeding. When a 30 min infusion was used, the tail bleeding experiment began as soon as the infusion finished. Following drug administration, a 3 mm long section of the tail tip was removed using a scalpel blade and the tail tip immersed in warmed saline. Bleeding was monitored until cessation and the time recorded. […] If the tail did re-bleed, length of time of rebleeding was also recorded. The experiment was ended when bleeding had ceased for at least 2 min, or at 30 min post-tail tip removal. Haemoglobin was quantified using 2 methods [(i, ii) using Abs 575 nm; (iii) using a colorimetric haemoglobin assay, as per the manufacturer's instructions (Sigma Aldrich, Haemoglobin Assay Kit MAK115)]. The treatment dosing regimens were as follows: rtPA (10 mg/kg: 1 mg/kg bolus, 9 mg/kg infusion over 30 min); Integrilin (1-10 mg/kg, bolus every 15 minutes); TGX221 (2.5 mg/kg; single bolus 15 minutes prior to lop); Arg—argatroban (80 ug/kg bolus; 40 ug/kg/min infusion 60). […] Data are presented as mean±SEM.
In addition, 15 minutes following commencement of treatment administration, tail transection (3 mm) was performed, and the tail tip immersed in warm (37° C.) saline to allow for blood collection from the tail (as described under “Methods”). Flow of blood was assessed over 30 minutes and any periods of blood flow cessation and rebleeding noted. Blood monitoring and collection was ceased at 30 minutes after lop, for all mice. Haemoglobin content was assessed in the collected sample using a colorimetric haemoglobin assay, as per the manufacturer's instructions (Sigma Aldrich, Haemoglobin Assay Kit MAK115). Data was analysed using a one-way ANOVA relative to Vehicle. […] The bar graph depicts mean±SD, where ***P<0.0005, ^nsP>0.05.

[1] = test system: occlusive thrombus in the mouse carotid artery; assay: carotid artery thrombosis model: occlusive thrombus formation induced by electrolytic injury, recanalisation classified from carotid blood flow; format: in vivo, C57BL/6 male mice; conditions: for thrombolysis, recanalisation and vessel reocclusion (in words): dual therapy: antiplatelet agent 2.5 mg/kg together with rtPA 10 mg/kg; for comparative anti-platelet efficacy in vivo, TGX221 versus AZD6482: each 2.5 mg/kg combined with rtPA 10 mg/kg; for lysis of 4.5 hours aged clots (in words): treatment 270 min after occlusion, triple therapy versus rtPA/argatroban dual therapy; for recanalisation of older (aged) clots (in words): triple therapy: rtPA + argatroban + antiplatelet agent (2.5 mg/kg, 2x bolus), treatment 15, 120 or 270 min after occlusion
[2] = test system: ischaemic stroke after carotid artery thrombotic occlusion and contralateral stenosis; format: in vivo
mouse blood/platelets = assay: ADP-induced aggregation in PPACK-anticoagulated PRP (Integrilin dose-response); format: cell-based
Source text: Data are presented as mean±SEM.

Cc1cc(C(C)Nc2ccccc2)c2nc(N3CCOCC3)cc(=O)n2c1 (racemic) [TGX221, (±)-7-methyl-2-morpholin-4-yl-9-(1-phenylaminoethyl)-pyrido[1,2-a]pyrimidin-4-one]
tail bleeding (in words) (tail bleeding; administered alone (TGX221 2.5 mg/kg; Integrilin 3 mg/kg and above)): does not Increase Tail Bleeding | tail bleeding (in words) (tail bleeding; in combination with rt-PA (10 mg/kg; for TGX221 also up to 20 mg/kg)): promising bleeding profile | thrombolysis, recanalisation and vessel reocclusion (in words) ([1]; 15 min after occlusion): improves thrombolysis and vessel reocclusion over and above that achieved with rtPA alone; also recorded: effectively enhancing recanalisation | comparative anti-platelet efficacy in vivo, TGX221 versus AZD6482 [1]: equipotent | lysis of 4.5 hours aged clots (in words) [1]: benefit | recanalisation and reocclusion (in words) ([1]; triple therapy: TGX221 2.5 mg/kg + argatroban + rtPA 10 mg/kg, 15 min after occlusion): improving recanalisation as well as reducing reocclusion | recanalisation of older (aged) clots (in words) [1]: improving recanalization of older clots | vessel (carotid) recanalisation (in words) ([2]; triple therapy: TGX221 2.5 mg/kg + argatroban + rtPA 10 mg/kg, 5 min after stroke onset): improved blood flow (recanalisation) | cerebral perfusion (in words) ([2]; triple therapy: TGX221 + argatroban + rtPA): improved cerebral reperfusion | cerebral infarct (TTC staining, in words) ([2]; triple therapy: TGX221 + argatroban + rtPA, 24 hours): reduced cerebral infarct

Cc1cc([C@@H](C)Nc2ccccc2C(=O)O)c2nc(N3CCOCC3)cc(=O)n2c1 [AZD6482, (−)-2-({1R-[7-methyl-2-(morpholin-4-yl)-4-oxo-pyrido[1,2-a]pyrimidin-9-yl]ethyl}amino)benzoic acid]
thrombolysis, recanalisation and vessel reocclusion (in words) ([1]; 15 min after occlusion): improves thrombolysis and vessel reocclusion over and above that achieved with rtPA alone; also recorded: effectively enhancing recanalisation | comparative anti-platelet efficacy in vivo, TGX221 versus AZD6482 [1]: equipotent | lysis of 4.5 hours aged clots (in words) [1]: benefit | recanalisation of older (aged) clots (in words) [1]: improving recanalization of older clots

N=C(N)NCCCC[C@@H]1NC(=O)CCSSC[C@@H](C(N)=O)NC(=O)[C@@H]2CCCN2C(=O)[C@H](Cc2c[nH]c3ccccc23)NC(=O)[C@H](CC(=O)O)NC(=O)CNC1=O [Integrilin, Eptifibatide, reference compound] ([Mpa][hArg]GDWPC-NH2; disulfide 1-7)
tail bleeding / safety (in words) (tail bleeding; triple therapy with rt-PA 10 mg/kg and argatroban): accompanied by an increase in bleeding | inhibition of ADP-induced aggregation (mouse blood/platelets; 3.0 mg/kg ('Stroke' dose)): approximately 60% | inhibition of ADP-induced aggregation (mouse blood/platelets; 4.0 mg/kg ('AMI' dose)): ~80% | stable recanalisation of the occluded carotid artery (in words) ([2]; integrilin 4 mg/kg every 15 min with rtPA 10 mg/kg and argatroban): enhances stable recanalisation

rtPA: recombinant tissue plasminogen activator, thrombolytic agent, purchased from Boehringer Ingelheim
recanalisation category / re-thrombosis (in words) ([1]; rt-PA monotherapy 10 mg/kg, 15 min after occlusion, 60 min monitoring): induces transient recanalisation | clot lysis and recanalisation of the carotid, share of vessels ([1]; rtPA 10 mg/kg i.v. alone, 15 min after occlusion, blood flow monitored 60 min): approximately 25%
